These molecules were tested against T1, Dolichyl-phosphate-mannose--protein mannosyltransferase 1 (Candida albicans (strain SC5314 / ATCC MYA-2876) (Yeast), UniProt O74189) (assay: In vitro inhibition of Candida albicans protein mannosyl transferase 1).
T1 sequence (O74189 whole entry): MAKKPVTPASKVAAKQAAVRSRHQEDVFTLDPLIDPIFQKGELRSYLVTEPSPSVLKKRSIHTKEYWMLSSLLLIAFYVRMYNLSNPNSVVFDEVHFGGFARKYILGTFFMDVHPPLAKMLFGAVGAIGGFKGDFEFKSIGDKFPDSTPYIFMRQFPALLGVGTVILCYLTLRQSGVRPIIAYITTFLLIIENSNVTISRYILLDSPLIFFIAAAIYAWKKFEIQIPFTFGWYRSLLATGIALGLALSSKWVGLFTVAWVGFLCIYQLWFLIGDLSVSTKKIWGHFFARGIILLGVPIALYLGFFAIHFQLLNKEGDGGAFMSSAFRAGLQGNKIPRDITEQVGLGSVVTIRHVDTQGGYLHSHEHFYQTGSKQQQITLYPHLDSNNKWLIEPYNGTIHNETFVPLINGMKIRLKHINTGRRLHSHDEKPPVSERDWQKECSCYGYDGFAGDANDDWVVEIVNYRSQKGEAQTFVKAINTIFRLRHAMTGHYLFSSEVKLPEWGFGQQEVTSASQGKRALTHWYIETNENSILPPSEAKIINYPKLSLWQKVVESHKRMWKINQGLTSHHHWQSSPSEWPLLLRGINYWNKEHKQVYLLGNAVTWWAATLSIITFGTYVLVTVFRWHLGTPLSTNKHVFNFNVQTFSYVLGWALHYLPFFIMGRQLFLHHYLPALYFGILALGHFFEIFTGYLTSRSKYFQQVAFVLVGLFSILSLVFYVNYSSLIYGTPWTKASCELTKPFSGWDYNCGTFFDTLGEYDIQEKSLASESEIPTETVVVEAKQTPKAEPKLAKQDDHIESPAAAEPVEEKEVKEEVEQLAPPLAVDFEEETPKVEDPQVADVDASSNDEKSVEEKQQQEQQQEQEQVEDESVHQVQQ

SMILES	IC50 [nM]
O=C(O)CN1C(=O)/C(=C/c2ccc(OCCc3cc(F)cc(F)c3)c(OCc3ccccc3)c2)SC1=S	850
CC[C@H](COc1ccc(/C=C2\SC(=S)N(CC(=O)O)C2=O)cc1O[C@H](c1ccccc1)C(F)(F)F)c1ccccc1	500
Cc1ccc(COc2ccc(/C=C3\SC(=S)N(CC(=O)O)C3=O)cc2OCc2ccccc2)cc1	2700
C[C@@H](COc1ccc(/C=C2\SC(=S)N(CC(=O)O)C2=O)cc1O[C@H](C)c1ccccc1)c1ccccc1	1800
O=C(O)CN1C(=O)/C(=C/c2ccc(OCCCc3ccccc3)c(OCc3ccccc3)c2)SC1=S	1400
CS(=O)(=O)c1ccc(COc2cc(/C=C3\SC(=S)N(CC(=O)O)C3=O)ccc2OCc2ccccc2)cc1	20000
O=C(O)CN1C(=O)/C(=C/c2ccc(OCc3ccc(F)cc3F)c(OCc3ccccc3)c2)SC1=S	6500
C[C@@H](COc1ccc(/C=C2\SC(=S)N(CC(=O)O)C2=O)cc1O[C@@H](c1ccccc1)C(F)(F)F)c1ccccc1	1800
O=C(O)CN1C(=O)/C(=C/c2cccc(OCc3ccccc3)c2)SC1=S	50000
COc1cccc(COc2ccc(/C=C3\SC(=S)N(CC(=O)O)C3=O)cc2OCc2cccc(OC)c2)c1	15000
O=C(O)CN1C(=O)/C(=C/c2ccc(OCc3ccccc3)c(OCc3ccncc3)c2)SC1=S	30000
O=C(O)CN1C(=O)/C(=C/c2ccc(OCc3ccccc3)c(OCc3ccc(F)cc3F)c2)SC1=S	8500
CC(Oc1cc(/C=C2\SC(=S)N(CC(=O)O)C2=O)ccc1OCCc1ccccc1)c1ccccc1 (stereo not given)	200
O=C(O)CN1C(=O)/C(=C/c2ccc(OCc3ccc(F)cc3F)c(OCc3ccc(F)cc3F)c2)SC1=S	5000
O=C(O)CN1C(=O)/C(=C/c2ccc(OCCc3ccc(OC(F)(F)F)cc3)c(OCc3ccccc3)c2)SC1=S	1300

The remaining lines, values ahead:

IC50 [nM]	SMILES
2300	O=C(O)CN1C(=O)/C(=C/c2ccc(OCc3ccccc3)c(OCc3ccccc3)c2)SC1=S
4000	O=C(O)CN1C(=O)/C(=C/c2ccc(OCCc3ccc(F)cc3F)c(OCc3ccccc3)c2)SC1=S
800	CCCN(CCC)C(=O)C(Oc1cc(/C=C2\SC(=S)N(CC(=O)O)C2=O)ccc1OCCc1ccccc1)c1ccccc1 (stereo not given)
600	C[C@H](COc1ccc(/C=C2\SC(=S)N(CC(=O)O)C2=O)cc1O[C@H](c1ccccc1)C(F)(F)F)c1ccccc1
170	O=C(O)CN1C(=O)/C(=C/c2ccc(OCCc3ccccc3)c(OC(CO)c3ccccc3)c2)SC1=S (stereo not given)
4000	O=C(O)CN1C(=O)/C(=C/c2ccc(OCc3ccccc3)c(OCc3cccc(Cl)c3)c2)SC1=S
3400	COc1ccc(COc2ccc(/C=C3\SC(=S)N(CC(=O)O)C3=O)cc2OCc2ccccc2)cc1
2000	O=C(O)CN1C(=O)/C(=C\c2ccc(OCc3ccccc3)c(OCc3ccc(OC(F)(F)F)cc3)c2)SC1=S
950	O=C(O)CN1C(=O)/C(=C/c2ccc(OCc3ccc(Cl)cc3)c(OCc3ccccc3)c2)SC1=S
1900	O=C(O)CN1C(=O)/C(=C/c2ccc(OCc3ccc(C(F)(F)F)cc3)c(OCc3ccccc3)c2)SC1=S

The molecules below were run on Candida albicans (assay: In vitro inhibition of Candida albicans G418-sensitive proliferation).
Assay type: functional, organism-based

SMILES	IC50 [nM]
O=C(O)CN1C(=O)/C(=C/c2ccc(OCc3cccc(C(F)(F)F)c3)c(OCc3ccccc3)c2)SC1=S	650
O=C(O)CN1C(=O)/C(=C/c2ccc(OCc3ccccc3)c(OCc3ccccc3)c2)SC1=S	3000
O=C(O)CN1C(=O)/C(=C/c2ccc(OCCc3ccc(F)cc3F)c(OCc3ccccc3)c2)SC1=S	50
O=C(O)CN1C(=O)/C(=C/c2ccc(OCCc3cc(F)cc(F)c3)c(OCc3ccccc3)c2)SC1=S	110
CC[C@H](COc1ccc(/C=C2\SC(=S)N(CC(=O)O)C2=O)cc1O[C@H](c1ccccc1)C(F)(F)F)c1ccccc1	20
CCCN(CCC)C(=O)C(Oc1cc(/C=C2\SC(=S)N(CC(=O)O)C2=O)ccc1OCCc1ccccc1)c1ccccc1 (stereo not given)	50
Cc1ccc(COc2ccc(/C=C3\SC(=S)N(CC(=O)O)C3=O)cc2OCc2ccccc2)cc1	600
C[C@H](COc1ccc(/C=C2\SC(=S)N(CC(=O)O)C2=O)cc1O[C@H](c1ccccc1)C(F)(F)F)c1ccccc1	20
O=C(O)CN1C(=O)/C(=C/c2ccc(OCCc3ccccc3)c(OC(CO)c3ccccc3)c2)SC1=S (stereo not given)	300
C[C@@H](COc1ccc(/C=C2\SC(=S)N(CC(=O)O)C2=O)cc1O[C@H](C)c1ccccc1)c1ccccc1	30
O=C(O)CN1C(=O)/C(=C/c2ccc(OCCCc3ccccc3)c(OCc3ccccc3)c2)SC1=S	2400
CS(=O)(=O)c1ccc(COc2cc(/C=C3\SC(=S)N(CC(=O)O)C3=O)ccc2OCc2ccccc2)cc1	> 100000
O=C(O)CN1C(=O)/C(=C/c2ccc(OCc3ccc(F)cc3F)c(OCc3ccccc3)c2)SC1=S	2100
C[C@@H](COc1ccc(/C=C2\SC(=S)N(CC(=O)O)C2=O)cc1O[C@@H](c1ccccc1)C(F)(F)F)c1ccccc1	200
COc1cccc(COc2ccc(/C=C3\SC(=S)N(CC(=O)O)C3=O)cc2OCc2cccc(OC)c2)c1	> 100000
O=C(O)CN1C(=O)/C(=C/c2ccc(OCc3ccccc3)c(OCc3cccc(Cl)c3)c2)SC1=S	4000
O=C(O)CN1C(=O)/C(=C/c2ccc(OCc3ccccc3)c(OCc3ccncc3)c2)SC1=S	> 100000
COc1ccc(COc2ccc(/C=C3\SC(=S)N(CC(=O)O)C3=O)cc2OCc2ccccc2)cc1	3000
O=C(O)CN1C(=O)/C(=C\c2ccc(OCc3ccccc3)c(OCc3ccc(OC(F)(F)F)cc3)c2)SC1=S	500
O=C(O)CN1C(=O)/C(=C/c2ccc(OCc3ccc(Cl)cc3)c(OCc3ccccc3)c2)SC1=S	600
O=C(O)CN1C(=O)/C(=C/c2ccc(OCc3ccccc3)c(OCc3ccc(F)cc3F)c2)SC1=S	6000
CC(Oc1cc(/C=C2\SC(=S)N(CC(=O)O)C2=O)ccc1OCCc1ccccc1)c1ccccc1 (stereo not given)	20
O=C(O)CN1C(=O)/C(=C/c2ccc(OCc3ccc(F)cc3F)c(OCc3ccc(F)cc3F)c2)SC1=S	> 100000
O=C(O)CN1C(=O)/C(=C/c2ccc(OCc3ccc(C(F)(F)F)cc3)c(OCc3ccccc3)c2)SC1=S	4000
O=C(O)CN1C(=O)/C(=C/c2ccc(OCCc3ccc(OC(F)(F)F)cc3)c(OCc3ccccc3)c2)SC1=S	200

— ChEMBL document CHEMBL1137125, “Rhodanine-3-acetic acid derivatives as inhibitors of fungal protein mannosyl transferase 1 (PMT1)” (Bioorg Med Chem Lett, 2004)
